Earlier results in patent US20090318293A1, “AGRICULTURAL COMPOSITION” (PLANT IMPACT PLC, priority 2005, published 2009).

System: cotyledon growth, chlorophyll biosynthesis and cell elongation
Settings: on cotyledon growth, chlorophyll biosynthesis and cell elongation in the systems studied

SMILES: Cn1c(=O)c2c(ncn2C)n(C)c1=O [caffeine, 3,7-Dihydro-1,3,7-trimethyl-1H-purine-2,6-dione]
- cytokinin-like effect: weak cytokinin-like effect
